Structures are written as SMILES. Values after ≈ are worked out from the molar mass of the structure shown. Results filed as inconclusive are left out. Active and inactive are the calls of the source. The rule behind the calls is not given here.

This assay has as its system M. tuberculosis H37Rv growth inhibition. In words: Confirmatory growth inhibition assay against Mycobacterium tuberculosis H37Rv, potency (AID 1949).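 Note: bacteria grown 7 days with compound before Alamar blue readout.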

In the case of `Clc1ccc(OCCOCCNCc2ccccc2)c2ccccc12`, the IC50 was 6.11 µg/mL (≈ 17.2 µM).

`Cc1cccc(C(=O)NC(=S)N2CCC(C)CC2)c1`: the IC50 was 2.97 µg/mL (≈ 10.7 µM).

For the compound `Cc1ccc(N2CC(C(=O)OCc3cccc(C(=O)Oc4ccccc4)c3)CC2=O)cc1` (stereo not given), the IC50 is > 50 µg/mL (inactive).

In the case of `CC1CCCc2sc(NC(=S)NC(=O)c3ccccc3)c(C#N)c21` (stereo not given), the IC50 is 0.94 µg/mL (≈ 2.64 µM).

For `Cc1nn(-c2ccc([N+](=O)[O-])cc2)c(C)c1N1C(=O)c2cccc3cc(Br)cc(c23)C1=O`, the IC50 was 0.39 µg/mL (≈ 0.794 µM).

As for `CCC(C(=O)Nc1ccc(CC(=O)OC)cc1)c1ccccc1` (stereo not given), the half-inhibitory concentration (IC50) is 0.69 µg/mL (≈ 2.22 µM).

With `CC(C)c1ccc(OCC(=O)Nc2nc(C(C)(C)C)cs2)cc1`, the concentration for half-maximal inhibition (IC50) was 3.87 µg/mL (≈ 11.6 µM).

With `CCOC(=O)c1c(NC(=O)CNC(C)CC)sc2c1CCCC2` (stereo not given), the IC50 was 17.4 µg/mL (≈ 51.4 µM).

Consider `NC(=O)c1c(NC(=O)c2cc3ccccc3oc2=O)sc2c1CCCCCC2`, for which the IC50 is 1.03 µg/mL (≈ 2.6 µM).

In the case of `CCOC(=O)c1c(NC(=S)NC2CCN(Cc3ccccc3)CC2)sc(C)c1-c1ccccc1`, the IC50 was 1.38 µg/mL (≈ 2.8 µM).

Turning to `CCOc1ccc(-c2[nH]ncc2-c2ccccc2)c(O)c1C`, the IC50 is 4.39 µg/mL (≈ 14.9 µM).

`COC(=O)Cc1c(C)c2ccc(OCC(=O)Nc3cc(C)cc(C)c3)cc2oc1=O`: the half-inhibitory concentration (IC50) was 0.2 µg/mL (≈ 0.488 µM).

Take `CCc1c(C)sc(NC(=S)NC2CCN(Cc3ccccc3)CC2)c1C(=O)OC`: the IC50 was 1.69 µg/mL (≈ 3.92 µM).

As for `CCOc1cc(CNC23CC4CC(CC(C4)C2)C3)ccc1OCc1cccs1`, the half-maximal inhibitory concentration (IC50) was 0.82 µg/mL (≈ 2.06 µM).

Take `COc1ccc(C(=O)Oc2ccc(C(=O)OCc3ccccc3)cc2)cc1OC`: the 50% inhibitory concentration (IC50) was 1.39 µg/mL (≈ 3.54 µM).

In the case of `COc1ccccc1Nc1nc(N)nc(CN2CCC(Cc3ccccc3)CC2)n1`, the IC50 is 37.8 µg/mL (≈ 93.5 µM).

With `CCc1cc2c(=O)c(Oc3ccc(-c4ccccc4)cc3)coc2cc1OC(C)=O`, the IC50 is 5.89 µg/mL (≈ 14.7 µM).

As to `Clc1ccc(OCCCNCc2ccccc2)c2ccccc12`, the 50% inhibitory concentration (IC50) was 1.36 µg/mL (≈ 4.17 µM).

Take `CCOC(=O)CSc1nnc2c3sc4nc(N5CCOCC5)c5c(c4c3ncn12)CC(C)(C)OC5`: the IC50 was 1.33 µg/mL (≈ 2.58 µM).

Take `CC(=O)NC(=S)NNC(=O)c1ccc(C(C)(C)C)cc1`: the IC50 is 0.29 µg/mL (≈ 0.988 µM).

`COc1cccc(CN2CCN(C(=O)Nc3ccc(Cl)c(Cl)c3)CC2)c1`: the IC50 was 5.13 µg/mL (≈ 13 µM).

As to `O=C(Nc1ccc(F)cc1)NC1CCCCCCC1`, the half-maximal inhibitory concentration (IC50) was 2.53 µg/mL (≈ 9.57 µM).

`Cc1cccc(NC(=O)c2cc(-c3cccs3)nc3ccccc23)n1`: the concentration for half-maximal inhibition (IC50) is 1.82 µg/mL (≈ 5.27 µM).

Turning to `O=C(c1ccc(Cl)cc1)c1ccc(CSc2nnc(-c3ccccc3)o2)o1`, the IC50 was < 0.1 µg/mL.

With `Cc1c(OC(=O)c2ccccc2Cl)ccc2c1CCCC2`, the IC50 is 2.51 µg/mL (≈ 8.34 µM).

As for `Cc1ccc(-c2nc(Nc3ccc(O)cc3)c3ccccc3n2)cc1`, the 50% inhibitory concentration (IC50) is 2.14 µg/mL (≈ 6.54 µM).

For `O=C(CCNc1ccc(Cc2ccncc2)cc1)c1ccc([N+](=O)[O-])cc1`, the concentration for half-maximal inhibition (IC50) was 4.37 µg/mL (≈ 12.1 µM).

Regarding `COc1cccc(-n2nnnc2S(=O)(=O)Cc2ccccc2)c1`, the IC50 was 0.38 µg/mL (≈ 1.15 µM).

For the compound `O=C(c1ccc(NC(=O)C2(c3ccccc3)CCCC2)cc1)N1CCCCC1`, the 50% inhibitory concentration (IC50) is 1.24 µg/mL (≈ 3.29 µM).

For the compound `Cc1ccc(C)c(N2C(=O)c3cccc4c([N+](=O)[O-])ccc(c34)C2=O)c1`, the IC50 was 0.76 µg/mL (≈ 2.19 µM).

In the case of `CCN(CC)CC(O)Cn1c(C)c(-c2ccccc2)c2cc([N+](=O)[O-])ccc21` (stereo not given), the IC50 is 29.4 µg/mL (≈ 77 µM).

In the case of `O=C(Nc1nnc(C2CCCCC2)s1)c1sc2ccccc2c1Cl`, the IC50 is 0.37 µg/mL (≈ 0.979 µM).

For the compound `Clc1ccc(Nc2nc(-c3ccccn3)cs2)nc1`, the IC50 is < 0.1 µg/mL.

Consider `CCOC(=O)COc1ccc2c(=O)c(Oc3ccc(F)cc3)c(C)oc2c1`, for which the 50% inhibitory concentration (IC50) is 1.51 µg/mL (≈ 4.06 µM).

`Nc1c2c(nc3sc4c(c13)CCCC4)CCCC2`: the IC50 is 0.6 µg/mL (≈ 2.32 µM).

On to `COc1ccc(-c2cc(=O)oc3cc(OCC(=O)OCc4ccccc4)ccc23)cc1`, for which the IC50 was 16.4 µg/mL (≈ 39.3 µM).

On to `COc1cc(CNCc2ccccc2)c(Br)cc1OC1CCCC1`, for which the IC50 is 10.5 µg/mL (≈ 27 µM).

As for `CC(C)OC(=O)COc1ccc2c(=O)c(Oc3ccccc3Br)coc2c1`, the 50% inhibitory concentration (IC50) is 13.9 µg/mL (≈ 32.1 µM).

Consider `O=C(NC(Nc1ccc([N+](=O)[O-])cc1)C(Cl)(Cl)Cl)c1cccc(I)c1` (stereo not given), for which the IC50 is 7.08 µg/mL (≈ 13.8 µM).

As for `O=C(Nc1nccs1)c1ccc(CSc2ccccc2)o1`, the IC50 is 3.09 µg/mL (≈ 9.77 µM).

As to `O=C(Nc1cccc(I)c1)C(Cl)Cl`, the half-maximal inhibitory concentration (IC50) was 5.84 µg/mL (≈ 17.7 µM).

Turning to `CCn1cc(C(=O)O)c(=O)c2cnc(N3CCN(C(=S)Nc4sc5c(c4C(=O)OC)CCCCCC5)CC3)nc21`, the IC50 is > 50 µg/mL (inactive).

As for `CCCOc1ccc(C(=O)NC(=S)Nc2ccc(C(=O)O)cc2)cc1`, the IC50 is 0.12 µg/mL (≈ 0.335 µM).

Turning to `O=C(COc1ccc(C(=O)NCc2ccccc2)cc1)OC1CCCCC1`, the IC50 is 0.73 µg/mL (≈ 1.99 µM).

For the compound `Cn1c(NC(=O)c2ccccc2)nc2ccccc21`, the IC50 was 0.57 µg/mL (≈ 2.27 µM).

`CCCCNCCCCCOc1ccc(Cl)cc1Cl`: the 50% inhibitory concentration (IC50) is 4.18 µg/mL (≈ 13.7 µM).

As to `CCOC(=O)Cn1nnc(-c2ccc(OCc3ccccc3F)cc2)n1`, the IC50 is 0.28 µg/mL (≈ 0.786 µM).

In the case of `CCOC(=O)c1cccc(NC(=O)C(Cl)Cl)c1`, the IC50 was 3.07 µg/mL (≈ 11.1 µM).

In the case of `Cc1ccc2nc(-c3cccc(NC(=O)c4cccs4)c3)[nH]c2c1`, the half-maximal inhibitory concentration (IC50) is 7.08 µg/mL (≈ 21.2 µM).

For the compound `COc1ccccc1NC(=O)CSc1nc(-c2ccccc2)cc(C(F)(F)F)c1C#N`, the concentration for half-maximal inhibition (IC50) was 1.63 µg/mL (≈ 3.68 µM).

For orientation: IC50 means the point on the concentration scale where inhibition reaches its midpoint.
